molecular target: c-fms (Homo sapiens, UniProt P07333); assay: c-fms autophosphorylation, fluorescence polarization competition immunoassay; format: biochemical; conditions: 10 nM c-fms, 1 mM ATP, 5 mM MgCl2, 45 min room temperature; averages of three independent measurements; read-out: c-fms Autophosphorylation IC50
Procedure: Autophosphorylation, Fluorescence Polarization Competition Immunoassay
The assay buffer used was 100 mM 4-(2-hydroxyethyl)piperazine 1-ethanesulfonic acid (HEPES), pH 7.5, 1 mM 1,4-dithio-DL-threitol (DTT), 0.01% (v/v) Tween-20. Compounds were diluted in assay buffer containing 4% dimethylsulfoxide (DMSO) just prior to the assay. […] The kinase reaction was initiated by adding 2 μL of 5 mM ATP (Sigma) in assay buffer. The final concentrations in the assay were 10 nM c-fms, 1 mM ATP, 5 mM MgCl2, 2% DMSO. Control reactions were ran in each plate: in positive and negative control wells, assay buffer (made 4% in DMSO) was substituted for the compound; in addition, positive control wells received 1.2 μL of 50 mM ethylenediaminetetraaceticacid (EDTA).
The plates were incubated at room temperature for 45 min. At the end of the incubation, the reaction was quenched with 1.2 μL of 50 mM EDTA (EDTA was not added to the positive control wells at this point; see above). Following a 5-min incubation, each well received 10 μL of a 1:1:3 mixture of anti-phosphotyrosine antibody, 10×, PTK green tracer, 10× (vortexed), FP dilution buffer, respectively (all from PanVera, cat. # P2837). The plate was covered, incubated for 30 min at room temperature and the fluorescence polarization was read on the Analyst.
The IC50 values shown in Table 1 are averages of three independent measurements.

c-fms, sequence (P07333 20-972): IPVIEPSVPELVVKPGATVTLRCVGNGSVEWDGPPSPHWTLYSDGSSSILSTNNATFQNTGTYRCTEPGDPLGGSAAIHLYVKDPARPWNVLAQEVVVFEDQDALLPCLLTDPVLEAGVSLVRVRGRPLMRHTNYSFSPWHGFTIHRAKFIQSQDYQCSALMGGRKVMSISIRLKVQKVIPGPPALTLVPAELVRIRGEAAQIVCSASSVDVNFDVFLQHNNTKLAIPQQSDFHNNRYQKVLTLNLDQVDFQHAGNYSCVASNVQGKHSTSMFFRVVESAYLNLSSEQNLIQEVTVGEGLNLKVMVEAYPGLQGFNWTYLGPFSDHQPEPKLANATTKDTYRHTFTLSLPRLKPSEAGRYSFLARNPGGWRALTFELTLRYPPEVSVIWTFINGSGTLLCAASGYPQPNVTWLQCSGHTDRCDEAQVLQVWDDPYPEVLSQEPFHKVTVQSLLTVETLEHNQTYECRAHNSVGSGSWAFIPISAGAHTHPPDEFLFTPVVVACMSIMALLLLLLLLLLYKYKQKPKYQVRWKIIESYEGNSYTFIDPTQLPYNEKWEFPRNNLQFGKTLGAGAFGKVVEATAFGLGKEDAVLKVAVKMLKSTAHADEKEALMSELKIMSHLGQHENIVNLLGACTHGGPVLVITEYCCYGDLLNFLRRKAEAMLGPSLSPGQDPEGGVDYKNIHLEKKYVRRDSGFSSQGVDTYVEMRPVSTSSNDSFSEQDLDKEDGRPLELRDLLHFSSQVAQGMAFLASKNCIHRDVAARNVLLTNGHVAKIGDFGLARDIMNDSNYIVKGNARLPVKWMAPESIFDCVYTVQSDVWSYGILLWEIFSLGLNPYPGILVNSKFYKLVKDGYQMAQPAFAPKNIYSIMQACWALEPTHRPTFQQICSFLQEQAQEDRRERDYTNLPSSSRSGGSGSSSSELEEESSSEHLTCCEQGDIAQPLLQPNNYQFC

Row | Compound | IC50
1 | CCOC(=O)c1cn(-c2ccc3c(c2)CCC3)c2nc(Nc3ccc(N4CCN(C)CC4)cc3)ncc2c1=O [Cpd 1, 8-Indan-5-yl-2-[4-(4-methyl-piperazin-1-yl)-phenylamino]-5-oxo-5,8-dihydro-pyrido[2,3-d]pyrimidine-6-carboxylic acid ethyl ester] | 280 nM
2 | CCOC(=O)c1cn(-c2ccc3c(c2)CCC3)c2nc(Nc3ccc(OCC(O)CN(C)C)cc3)ncc2c1=O (stereo not shown) [Cpd 2, 2-[4-(3-Dimethylamino-2-hydroxy-propoxy)-phenylamino]-8-indan-5-yl-5-oxo-5,8-dihydro-pyrido[2,3-d]pyrimidine-6-carboxylic acid ethyl ester] | 440 nM
3 | CCOC(=O)c1cn(-c2ccc3c(c2)CCC3)c2nc(Nc3ccc(N4CCOCC4)cc3)ncc2c1=O [Cpd 3, 8-Indan-5-yl-2-(4-morpholin-4-yl-phenylamino)-5-oxo-5,8-dihydro-pyrido[2,3-d]pyrimidine-6-carboxylic acid ethyl ester] | 2900 nM
4 | CCOC(=O)c1cn(-c2ccc3c(c2)CCC3)c2nc(Nc3ccc(N(C)C)cc3)ncc2c1=O [Cpd 4, 2-(4-Dimethylamino-phenylamino)-8-indan-5-yl-5-oxo-5,8-dihydro-pyrido[2,3-d]pyrimidine-6-carboxylic acid ethyl ester] | > 10000 nM
5 | CCOC(=O)c1cn(-c2ccc3c(c2)CCC3)c2nc(Nc3cccc(N(C)C)c3)ncc2c1=O [Cpd 5, 2-(3-Dimethylamino-phenylamino)-8-indan-5-yl-5-oxo-5,8-dihydro-pyrido[2,3-d]pyrimidine-6-carboxylic acid ethyl ester] | 590 nM
6 | CN1CCN(c2ccc(Nc3ncc4c(=O)c(C(=O)O)cn(-c5ccc6c(c5)CCC6)c4n3)cc2)CC1 [Cpd 6, 8-Indan-5-yl-2-[4-(4-methyl-piperazin-1-yl)-phenylamino]-5-oxo-5,8-dihydro-pyrido[2,3-d]pyrimidine-6-carboxylic acid] | 1100 nM
7 | CNC(=O)c1cn(-c2ccc3c(c2)CCC3)c2nc(Nc3ccc(N4CCN(C)CC4)cc3)ncc2c1=O [Cpd 8, 8-indan-5-yl-2-[4-(4-methyl-piperazin-1-yl)-phenylamino]-5-oxo-5,8-dihydro-pyrido[2,3-d]pyrimidine-6-carboxylic acid methylamide] | 31 nM
8 | CCNC(=O)c1cn(-c2ccc3c(c2)CCC3)c2nc(Nc3ccc(N4CCN(C)CC4)cc3)ncc2c1=O [Cpd 9, 8-indan-5-yl-2-[4-(4-methyl-piperazin-1-yl)-phenylamino]-5-oxo-5,8-dihydro-pyrido[2,3-d]pyrimidine-6-carboxylic acid ethylamide] | 68 nM
9 | CCNC(=O)c1cn(-c2ccc3c(c2)CCC3)c2nc(Nc3ccc(OCC(O)CN(C)C)cc3)ncc2c1=O (stereo not shown) [Cpd 12, 2-[4-(3-Dimethylamino-2-hydroxy-propoxy)-phenylamino]-8-indan-5-yl-5-oxo-5,8-dihydro-pyrido[2,3-d]pyrimidine-6-carboxylic acid ethylamide] | 77 nM
10 | CN1CCN(c2ccc(Nc3ncc4c(=O)c(C(N)=O)cn(-c5ccccc5)c4n3)cc2)CC1 [Cpd 13, 2-[4-(4-Methyl-piperazin-1-yl)-phenylamino]-5-oxo-8-phenyl-5,8-dihydro-pyrido[2,3-d]pyrimidine-6-carboxylic acid amide] | 730 nM
11 | NC(=O)c1cn(-c2ccc3c(c2)CCC3)c2nc(Nc3ccc(N4CCOCC4)cc3)ncc2c1=O [Cpd 14, 8-indan-5-yl-2-(4-morpholin-4-yl-phenylamino)-5-oxo-5,8-dihydro-pyrido[2,3-d]pyrimidine-6-carboxylic acid amide] | 19 nM
12 | CN(C)c1ccc(Nc2ncc3c(=O)c(C(N)=O)cn(-c4ccc5c(c4)CCC5)c3n2)cc1 [Cpd 15, 2-(4-Dimethylamino-phenylamino)-8-indan-5-yl-5-oxo-5,8-dihydro-pyrido[2,3-d]pyrimidine-6-carboxylic acid amide] | 70 nM
13 | CCOC(=O)c1cn(C2CCCCC2)c2nc(Nc3ccc(N4CCN(C)CC4)cc3)ncc2c1=O [Cpd 17, 8-Cyclohexyl-2-[4-(4-methyl-piperazin-1-yl)-phenylamino]-5-oxo-5,8-dihydro-pyrido[2,3-d]pyrimidine-6-carboxylic acid ethyl ester] | 1700 nM
14 | CN1CCN(c2ccc(Nc3ncc4c(=O)c(C(N)=O)cn(C5CCCC5)c4n3)cc2)CC1 [Cpd 19, 8-Cyclopentyl-2-[4-(4-methyl-piperazin-1-yl)-phenylamino]-5-oxo-5,8-dihydro-pyrido[2,3-d]pyrimidine-6-carboxylic acid amide] | 56 nM
15 | NC(=O)c1cn(-c2ccc3c(c2)CCC3)c2nc(Nc3cccc(CN4CCOCC4)c3)ncc2c1=O [Cpd 24, 8-Indan-5-yl-2-(3-morpholin-4-ylmethyl-phenylamino)-5-oxo-5,8-dihydro-pyrido[2,3-d]pyrimidine-6-carboxylic acid amide] | 18 nM
16 | CN1CCN(c2ccc(Nc3ncc4c(=O)c(C(N)=O)cn(-c5ccc6c(c5)CCC6)c4n3)c(O)c2)CC1 [Cpd 25, 2-[2-Hydroxy-4-(4-methyl-piperazin-1-yl)-phenylamino]-8-indan-5-yl-5-oxo-5,8-dihydro-pyrido[2,3-d]pyrimidine-6-carboxylic acid amide] | 93 nM
17 | CN1CCN(c2ccc(Nc3cc4c(cn3)c(=O)c(C(N)=O)cn4-c3ccc4c(c3)CCC4)cc2)CC1 [Cpd 26, 1-Indan-5-yl-7-[4-(4-methyl-piperazin-1-yl)-phenylamino]-4-oxo-1,4-dihydro-[1,6]naphthyridine-3-carboxylic acid amide] | 56 nM
18 | NC(=O)c1cn(-c2ccc3c(c2)CCC3)c2nc(Nc3ccc(CCN4CCOCC4)cc3)ncc2c1=O [Cpd 27, 8-Indan-5-yl-2-[4-(2-morpholin-4-yl-ethyl)-phenylamino]-5-oxo-5,8-dihydro-pyrido[2,3-d]pyrimidine-6-carboxylic acid amide] | 10 nM
19 | CCNC(=O)c1cn(-c2ccc3c(c2)CCC3)c2nc(Nc3ccc(CCN4CCOCC4)cc3)ncc2c1=O [Cpd 29, 8-Indan-5-yl-2-[4-(2-morpholin-4-yl-ethyl)-phenylamino]-5-oxo-5,8-dihydro-pyrido[2,3-d]pyrimidine-6-carboxylic acid ethyl amide] | 33 nM
20 | NC(=O)c1cn(-c2ccc3c(c2)CCC3)c2nc(Nc3ccc(C[C@H]4COC(=O)N4)cc3)ncc2c1=O [Cpd 30, (4S)-8-Indan-5-yl-5-oxo-2-[4-(2-oxo-oxazolidin-4-ylmethyl)-phenylamino]-5,8-dihydro-pyrido[2,3-d]pyrimidine-6-carboxylic acid amide] | 12 nM
21 | CNC(=O)c1cn(-c2ccc3c(c2)CCC3)c2nc(Nc3ccc(C[C@H]4COC(=O)N4)cc3)ncc2c1=O [Cpd 31, (4S)-8-Indan-5-yl-5-oxo-2-[4-(2-oxo-oxazolidin-4-ylmethyl)-phenylamino]-5,8-dihydro-pyrido[2,3-d]pyrimidine-6-carboxylic acid methyl amide] | 20 nM
22 | CCNC(=O)c1cn(-c2ccc3c(c2)CCC3)c2nc(Nc3ccc(C[C@H]4COC(=O)N4)cc3)ncc2c1=O [Cpd 32, (4S)-8-Indan-5-yl-5-oxo-2-[4-(2-oxo-oxazolidin-4-ylmethyl)-phenylamino]-5,8-dihydro-pyrido[2,3-d]pyrimidine-6-carboxylic acid ethyl amide] | 33 nM
23 | CNC(=O)c1cn(-c2ccc3c(c2)CCC3)c2nc(Nc3ccc(CCS(=O)(=O)NC(C)C)cc3)ncc2c1=O [Cpd 33, 8-Indan-5-yl-2-[4-(2-isopropylsulfamoyl-ethyl)-phenylamino]-5-oxo-5,8-dihydro-pyrido[2,3-d]pyrimidine-6-carboxylic acid methyl amide] | 100 nM
24 | CCNC(=O)c1cn(-c2ccc3c(c2)CCC3)c2nc(Nc3ccc(CCS(=O)(=O)NC(C)C)cc3)ncc2c1=O [Cpd 34, 8-Indan-5-yl-2-[4-(2-isopropylsulfamoyl-ethyl)-phenylamino]-5-oxo-5,8-dihydro-pyrido[2,3-d]pyrimidine-6-carboxylic acid ethyl amide] | > 1000 nM
25 | CNC(=O)c1cn(-c2ccc3c(c2)CCC3)c2nc(Nc3ccc(CCS(=O)(=O)N4CCOCC4)cc3)ncc2c1=O [Cpd 35, 8-Indan-5-yl-2-{4-[2-(morpholine-4-sulfonyl)-ethyl]-phenylamino}-5-oxo-5,8-dihydro-pyrido[2,3-d]pyrimidine-6-carboxylic acid methyl amide] | 80 nM
26 | CN1CCN(c2cccc(Nc3ncc4c(=O)c(C(N)=O)cn(-c5ccc6c(c5)CCC6)c4n3)c2)CC1 [Cpd 37, 8-Indan-5-yl-2-[3-(4-methyl-piperazin-1-yl)-phenylamino]-5-oxo-5,8-dihydro-pyrido[2,3-d]pyrimidine-6-carboxylic acid amide] | 8 nM
27 | CNC(=O)c1cn(-c2ccc3c(c2)CCC3)c2nc(Nc3cccc(N4CCN(C)CC4)c3)ncc2c1=O [Cpd 38, 8-indan-5-yl-2-[3-(4-methyl-piperazin-1-yl)-phenylamino]-5-oxo-5,8-dihydro-pyrido[2,3-d]pyrimidine-6-carboxylic acid methyl amide] | 9 nM
28 | CCNC(=O)c1cn(-c2ccc3c(c2)CCC3)c2nc(Nc3cccc(N4CCN(C)CC4)c3)ncc2c1=O [Cpd 39, 8-Indan-5-yl-2-[3-(4-methyl-piperazin-1-yl)-phenylamino]-5-oxo-5,8-dihydro-pyrido[2,3-d]pyrimidine-6-carboxylic acid ethyl amide] | 13 nM

— patent publication US7642270B2, “5-oxo-5,8-dihydro-pyrido-pyrimidine as inhibitors of c-fms kinase” (Janssen Pharmaceutica N.V., priority 2005, dated 2010)
